Test results as given in patent US9212178B2, “Substituted pyrimidine compounds and their use as SYK inhibitors” (Genosco, priority 2013, dated 2015).
Like-named read-outs stand apart in the source and are kept apart here.

Legend:
SUDHL4 = experiment: DLBCL cell proliferation, ATPLite assay; assay type: cell-based, human; details: for IC50: SUDHL4, 72 hours, read-out: Inhibition of proliferation IC50; for Inhibition of proliferation (in words): SUDHL4
Description: (§1) Several lines of evidence support the role of B cell receptor (BCR)-mediated survival signals in certain B cell malignancies such as non-Hodgkin lymphomas (NHL) including diffuse large B cell lymphoma (DLBCL). B cell receptor (BCR) signaling pathway components represent promising treatment targets in diffuse large B cell lymphoma (DLBCL) and additional B cell tumors. In order to address whether SYK inhibitor of Compounds of Formula (I), cellular viability of diffuse large B cell lymphoma (DLBCL) cells was measured on treatment of a series of concentration of SYK inhibitor.
(§2) The DLBCL cells, SUDHL4, SUDHL6 and OCI-LY1 […] were obtained from the American Type Culture Collection (ATCC, Manassas, Va., USA) or DSMZ (Braunschweig, Germany). […] The SUDHL4, SUDHL6 and OCI-LY1 cells were seeded at 1×10^5 cells/100 μL/well into 96 well culture plate, and serially diluted compound was then added. After an 72 hours of incubation period at 37° C., cells were subjected to an ATPLite assay (PerkinElmer) to determine the cytotoxic effects of the compound. The IC50 value of the test compound was calculated at Gradpad Prism 5 unless otherwise specified.

SUDHL6 = experiment: DLBCL cell proliferation, ATPLite assay; assay type: cell-based, human; details: for IC50: SUDHL6, 72 hours, read-out: Inhibition of proliferation IC50; for Inhibition of proliferation (in words): SUDHL6
Description: as §1, §2

OCI-LY1 = experiment: DLBCL cell proliferation, ATPLite assay; assay type: cell-based, human; details: for IC50: OCI-LY1, 72 hours, read-out: Inhibition of proliferation IC50; for Inhibition of proliferation (in words): OCI-LY1
Description: as §1, §2

THP-1 cells = experiment: SYK-dependent TNF-α release assay (IgG stimulation), ELISA; assay type: cell-based; details: THP-1 cells on human IgG-coated plate, 18 hours; read-out: TNF-α release inhibition, IgG stimulation IC50
Procedure: In order to address cellular potency of Compounds of Formula (I), TNF-a production was measured on treatment of a series of concentration of SYK inhibitor in THP-1 cells.
For SYK-dependent TNF-α release assay (i.e., via IgG stimulation), THP-1 cells derived from human monocytic cells were obtained from the American Type Culture Collection (ATCC, Manassas, Va.). This cell line was maintained with a Roswell Park Memorial Institute (RPMI) medium (GIBCO) containing 10% fetal bovine serum (FBS; GIBCO) and 0.05 mM solution of 2-mercaptoethanol. The THP-1 cells were seeded at 1×10^5 cells/100 μL/well into human IgG (10 ng/well, INVITROGEN)-coated 96 well culture plate, and serially diluted compound was then added. After an 18 hours of incubation period at 37° C., supernatants were collected for the determination of the TNF-α level by enzyme-linked immunosorbent assay (ELISA), and the remaining cells were subjected to an MTT (yellow tetrazolium salt) assay to determine the cytotoxic effects of the compound. The IC50 value of the test compound was calculated at Gradpad Prism 5 unless otherwise specified.

[1] = system: Collagen-induced arthritis in DBA/1J mice; experiment: Collagen-induced arthritis (CIA) mouse model, macroscopic paw scoring; assay type: in vivo; details: for CIA index (arthritic score of test group / vehicle group x 100): 30 mg/kg/day once daily oral gavage, vehicle = 100.0
Procedure: CIA mouse model was induced in DBA/1J mice (Japan Charles River Breeding Laboratories, Kanagawa, Japan) with 5 to 6 weeks of age. Animals were maintained at a temperature of 20±5° C. and a relative humidity of 40˜60%.
Bovine type II collagen (CII, 2 mg/ml dissolved in 0.05 M acetic acid, Chondrex, Redmond, Wash.) was emulsified in equal volumes of Freund's complete adjuvant (4 mg/ml of Mycobacterium tuberculosis strain H37Ra; Chondrex, Redmond, Wash.). On day 0, mice were immunized intradermally at the base of the tail with 100 μg bovine type II collagen emulsified in Freund's complete adjuvant. On day 21, all mice were boosted with an intraperitoneal injection of 100 μg type II collagen.
These compounds were dissolved in NMP/20% cyclodextrin/PEG400 5:45:50 solution and filtered by […] membrane filter. All the test substances were administered once daily at 30 mg/kg/day by oral gavage for 3 weeks.
The gradual onset of arthritis usually starts approximately 3 weeks after initial immunization. The progression of CIA was evaluated by the macroscopic scoring of paws at intervals of 3 days. The edema and swelling of each paw was scored visually as was described previously, using a scale of 0-4, where 0=no visible abnormalities, 1=mild redness or swelling of the wrist or up to three inflamed digits, 2=more than three inflamed digits or moderate redness and swelling of the ankle or wrist, 3=severe ankle and wrist inflammation, 4=extensive ankle and wrist inflammation including all digits. Therefore, the score of each mouse was calculated for the four limbs (maximum total score of 16 for each mouse) (Courtenay J S, Dallman M J, Dayan A D, et al., Immunisation against heterologous type II collagen induces arthritis in mice, Nature, 1980, 283, 666-668)
Arthritis was considered to be present if the score was >2. The blind scoring was performed by four independent observers. In this study, data was calculated by following equation. […] Results

[2] = system: Human peripheral CD19+ B cells; experiment: Cellular SLE model: immunoglobulin production in human peripheral B cells stimulated via TLR9 (ODN2006); assay type: cell-based; details: for IC50: human B cell, ODN2006 and IL-2, 6 days; for Inhibition of IgG and IgM production (in words): TLR9 stimulated by ODN2006 and IFNα
Description: Systemic lupus erythematosus (SLE) is a chronic inflammatory autoimmune disease and can affect several organs and systems. It is characterized by high production of autoantibodies against nuclear compounds. TLR7/8/9 are responsible for nucleic acid recognition and they trigger proinflammatory responses through activation of […] and Type I IFN production, making a bridge between the innate and the adaptive immune systems. TLR9 signaling pathway was adopted for cellular SLE model using human peripheral B cells to test potency of SYK inhibitor of Formula (I).
Human peripheral CD19+ B cells from an adult healthy donor were purchased from Sanguine Biosciences (Sherman Oaks, Calif.). B cells were cultured in 96-well plates with complete RPMI 1640 medium (Corning, Tewksbury, Mass.) supplemented with 10% heat-inactivated FBS (Life Technologies, Grand Island, N.Y.) and penicillin/streptomycin (Corning). B cells were stimulated with 1 μM ODN2006 (InvivoGen, San Diego, Calif.) and 20 ng/ml IFNα (PBL Assay Science, Piscataway, N.J.) for 3 days for toll-like receptor-9 (TLR-9)-mediated B cell growth. To differentiate naïve B cells into plasma cells, peripheral B cells were differentiated with 50 nM ODN2006 and 10 ng/ml IL-2 in a presence of various concentrations of SYK inhibitors for 6 days. Culture supernatants were collected and IgM and IgG production was measured using human IgM or IgG ELISA kit (BioLegend).

full-length human SYK = full-length human SYK (Homo sapiens (Human), UniProt P43405); experiment: Inhibition of enzymatic SYK kinase activity (LANCE Ulight TK peptide); assay type: biochemical; details: ATP at Km (15 uM), 30 min pre-incubation
Procedure: Compounds of the present invention were assayed to measure their capacity to inhibit a spleen tyrosine kinase (SYK).
Compounds of the invention were initially diluted to 10 mM in 100% DMSO (CALBIOCHEM™) for storage and made into kinase buffer solution to create a compound concentration ranging from 1 uM and 10 uM. Serial dilutions of compounds of the invention were dispensed into a 96-well plate (GREINER BIOSCIENCES™) at 6 μL each. Purified full-length human SYK (CARNA BIOSCIENCES™) were diluted in kinase buffer and added to the compound solutions and pre-incubated for 30 minutes at room temperature. […] The reaction mixture was incubated for 1 hour. Following the incubation, the stop solution made with EDTA, water, and Lance detection buffer ([…]™) was added (12 μL each) to stop phosphorylation.

[3] = 144 h, read-out: Inhibition of immunoglobulin production, IgG IC50
[4] = 144 h, read-out: Inhibition of immunoglobulin production, IgM IC50

Compound | IC50 (SUDHL4; Homo sapiens, SU-DHL-4) | Inhibition of proliferation (in words) (SUDHL4) | IC50 (SUDHL6; Homo sapiens, SU-DHL-6) | Inhibition of proliferation (in words) (SUDHL6) | IC50 (OCI-LY1; Homo sapiens) | Inhibition of proliferation (in words) (OCI-LY1) | IC50 (THP-1 cells) | IC50 [2, 3] | IC50 [2, 4] | Inhibition of IgG and IgM production (in words) [2] | also measured
Cc1nn(-c2ccnc(Nc3ccc4c(c3)c(C(=O)C3CC3)cn4C)n2)cc1CN1C[C@H](O)CO1 [Compound 1, (S)-cyclopropyl(5-(4-(4-((4-hydroxyisoxazolidin-2-yl)methyl)-3-methyl-1H-pyrazol-1-yl)pyrimidin-2-ylamino)-1-methyl-1H-indol-3-yl)methanone] | 1070 nM | potent inhibition | 2840 nM | potent inhibition | 1830 nM | potent inhibition | 52 nM | 296 nM | 232 nM | potent inhibition | Inhibition in arthritis phenotype indicated by CIA, compared with R788 (in words) ([1]; 30 mg/kg/day oral, versus R788): stronger inhibition; CIA index (arthritic score of test group / vehicle group x 100) ([1]; day 4): 3.0 ± 2.8%; CIA index (arthritic score of test group / vehicle group x 100) ([1]; day 7): 24.0 ± 9.2%; CIA index (arthritic score of test group / vehicle group x 100) ([1]; day 10): 40.1 ± 13.8%; CIA index (arthritic score of test group / vehicle group x 100) ([1]; day 13): 36.2 ± 12.0%; CIA index (arthritic score of test group / vehicle group x 100) ([1]; day 17): 33.5 ± 10.5%; CIA index (arthritic score of test group / vehicle group x 100) ([1]; day 19): 33.6 ± 10.4%
Cn1cc(C(=O)C2CC2)c2cc(Nc3nccc(-n4cc(CN5C[C@H](O)CO5)cn4)n3)ccc21 [Compound 30, (S)-cyclopropyl(5-(4-(4-((4-hydroxyisoxazolidin-2-yl)methyl)-1H-pyrazol-1-yl)pyrimidin-2-ylamino)-1-methyl-1H-indol-3-yl)methanone] | 952 nM | potent inhibition | 929 nM | potent inhibition | 2300 nM | potent inhibition | 17 nM | 188 nM | 90 nM | potent inhibition | IC50 (full-length human SYK): 2.46 nM
COc1cc(Nc2ncc(F)c(Nc3ccc4c(n3)NC(=O)C(C)(C)O4)n2)cc(OC)c1OC [Compound R406, reference compound] | – | – | – | – | – | – | 217 nM | – | – | – | IC50 (SUDHL4): 3670 nM; IC50 (SUDHL6): 3230 nM; IC50 (OCI-LY1): 3890 nM; IC50 ([2]; read-out: Inhibition of immunoglobulin production, IgG IC50): 369 nM; IC50 ([2]; read-out: Inhibition of immunoglobulin production, IgM IC50): 180 nM
